According to US20110150961A1, “ANTI-INFECTIVE CATHETERS” (priority 2008, published 2011):
In brackets after ≈: the same amount, converted by molar mass. Like-named read-outs stand apart in the source and are kept apart here.

What was measured:
Format in all cases: cell-based
K. pneumoniae [1] = experiment: Multi-organism zone-of-inhibition screening (Example 15); conditions: 24 hr, one sample per plate, antibiotic disks 6 mm (Gentamicin 10 μg, penicillin 10 units)
Description: (§1) The 5-FU CVC was compared with the commercially available Arrow CVC. Gentamicin (10 μg) or penicillin (10 units) disks were used as positive controls and CVC was used as the negative control. The samples were challenged with 3 species of Gram-positive bacteria, 4 species of Gram-negative bacteria and 1 type of yeast. The organisms used to challenge the samples were the following ATCC strains: S. aureus, Methicillin Resistant Staphylococcus aureus (MRSA), S. epidermidis, K. pneumoniae, and Vancomycin Resistant Pediococcus (VRP), E. coli, P. aeruginosa and C. albicans.
(§2) Organisms were inoculated into 2 mL of liquid agar, which was poured on top of solidified agar. One plate was made per organism. Test articles were inserted into the agar when the plates were solidified and dry. ZOI results were recorded at 24 hr. […] Each plate also contained one negative and one positive control sample and 1 Arrow CVC sample.

[2] = test system: Methicillin Resistant Staphylococcus aureus (MRSA); experiment: as above; conditions: 24 hr, one sample per plate, antibiotic disks 6 mm (Gentamicin 10 μg, penicillin 10 units)
Description: as §1, §2

E. coli [3] = experiment: as above; conditions: 24 hr, one sample per plate, antibiotic disks 6 mm (Gentamicin 10 μg, penicillin 10 units)
Description: as §1, §2

P. aeruginosa [4] = experiment: as above; conditions: 24 hr, one sample per plate, antibiotic disks 6 mm (Gentamicin 10 μg, penicillin 10 units)
Description: as §1
(§3) Organisms were inoculated into 2 mL of liquid agar, which was poured on top of solidified agar. One plate was made per organism. Test articles were inserted into the agar when the plates were solidified and dry. ZOI results were recorded at 24 hr. Three 0.5-cm sections of the 5-FU CVC were tested on each plate. Each plate also contained one negative and one positive control sample and 1 Arrow CVC sample.

P. aeruginosa [5] = experiment: MIC testing by broth microdilution, clinical isolates (Example 4); conditions: Pseudomonas aeruginosa, N=100
Description: (§4) The Gram-positive organisms tested were S. epidermidis, methicillin resistant S. epidermidis (MRSE), S. aureus, methicillin resistant S. aureus (MRSA), E. faecalis and vancomycin resistant E. faecalis, the Gram-negative organisms tested were P. aeruginosa, E. coli and K. pneumoniae .
(§5) For MIC testing, all isolates were tested against 5-FU by broth microdilution following CLSI methodology (M7-A7).

S. aureus [6] = experiment: as above; conditions: Staphylococcus aureus
Description: as §4, §5

K. pneumoniae [7] = experiment: as above; conditions: Klebsiella pneumoniae, N=104
Description: as §4, §5

S. epidermidis [8] = experiment: as above; conditions: Staphylococcus epidermidis
Description: as §4, §5

E. coli [9] = experiment: as above; conditions: Escherichia coli, N=102
Description: as §4, §5

E. faecalis = experiment: as above
Description: as §4, §5

S. aureus [10] = experiment: Multi-organism zone-of-inhibition screening (Example 15); conditions: 24 hr, one sample per plate, antibiotic disks 6 mm (Gentamicin 10 μg, penicillin 10 units)
Description: as §1, §2

S. epidermidis [11] = experiment: as above; conditions: 24 hr, one sample per plate, antibiotic disks 6 mm (Gentamicin 10 μg, penicillin 10 units)
Description: as §1, §2

[12] = test system: Vancomycin Resistant Pediococcus (VRP); experiment: as above; conditions: 24 hr, one sample per plate, antibiotic disks 6 mm (Gentamicin 10 μg, penicillin 10 units)
Description: as §1, §2

C. albicans = experiment: as above; conditions: 24 hr, one sample per plate, antibiotic disks 6 mm (Gentamicin 10 μg, penicillin 10 units)
Description: as §1, §3

Gentamicin
ZOI (K. pneumoniae [1]): 9.5 mm | ZOI [2]: 7.1 mm | ZOI (E. coli [3]): 10.5 mm | ZOI (P. aeruginosa [4]): 12.5 mm

C[C@H]1COc2c(N3CCN(C)CC3)c(F)cc3c(=O)c(C(=O)O)cn1c23 [Levofloxacin]
MIC90 (P. aeruginosa [5]): 32 µg/mL (≈ 88.6 µM) | MIC90 (S. aureus [6]; Oxacillin-R, N=40): 32 µg/mL (≈ 88.6 µM) | MIC90 (S. aureus [6]; Oxacillin-S, N=61): 16 µg/mL (≈ 44.3 µM) | MIC90 (S. aureus [6]; all, N=101): 32 µg/mL (≈ 88.6 µM) | MIC90 (K. pneumoniae [7]): 0.12 µg/mL (≈ 0.332 µM) | MIC90 (S. epidermidis [8]; Oxacillin-R, N=78): > 128 µg/mL | MIC90 (S. epidermidis [8]; Oxacillin-S, N=22): 128 µg/mL (≈ 354 µM) | MIC90 (S. epidermidis [8]; all, N=100): > 128 µg/mL | MIC90 (E. coli [9]): 16 µg/mL (≈ 44.3 µM) | MIC90 (E. faecalis; Enterococcus faecalis, all, N=101, read-out: MIC90): 64 µg/mL (≈ 177 µM) | MIC90 (E. faecalis; Vancomycin-R, N=21): 64 µg/mL (≈ 177 µM) | MIC90 (E. faecalis; Vancomycin-S, N=80): 64 µg/mL (≈ 177 µM)

Penicillin
ZOI (S. aureus [10]): 41.3 mm | ZOI (S. epidermidis [11]): 0 mm | ZOI [12]: 0 mm | ZOI (C. albicans): 0 mm
